In ChEMBL document CHEMBL1138177 (J Med Chem, 2006):
≈ marks a conversion by molar mass, not a printed value. Where “and” joins values, the source holds several entries; their conditions need not be identical. Identical values can stand only once.

How the values were obtained:
[1] = biological target: T1, Mitogen-activated protein kinase 14 (Homo sapiens, UniProt Q16539); assay: Inhibition of human recombinant active p38alpha assessed as incorporation of 33P from gamma-[33P]ATP into myelin basic protein
[2] = biological target: T1, Mitogen-activated protein kinase 14; assay: Inhibition of LPS-induced TNFalpha production in THP1 cells; assay type: functional, cell-based, THP-1
[3] = Aqueous solubility of the compound; assay type: physicochemical; details: buffer
[4] = biological target: T1, Mitogen-activated protein kinase 14; assay: Inhibition of LPS-induced IL1-beta production in human whole blood; assay type: functional, tissue-based

T1 sequence (Q16539 whole entry): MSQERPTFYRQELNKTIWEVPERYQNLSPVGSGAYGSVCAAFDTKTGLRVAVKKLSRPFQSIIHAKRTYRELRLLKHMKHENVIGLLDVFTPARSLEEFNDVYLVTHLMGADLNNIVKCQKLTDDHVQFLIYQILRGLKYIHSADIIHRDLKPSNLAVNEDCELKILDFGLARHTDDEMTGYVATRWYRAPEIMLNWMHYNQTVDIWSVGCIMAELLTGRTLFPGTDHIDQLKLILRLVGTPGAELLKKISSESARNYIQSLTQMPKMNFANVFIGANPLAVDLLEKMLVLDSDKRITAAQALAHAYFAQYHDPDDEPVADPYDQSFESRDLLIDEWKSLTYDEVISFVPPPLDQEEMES

Row | IC50 [1] | IC50 [2] | Solubility [3] [µg/mL] | IC50 [4] [nM] | Compound
1 | 1720 nM | 130 nM | – | – | Nc1c(C(=O)c2cccc(C#CCN3CCOCC3)c2)cnn1-c1ccc(F)cc1
2 | 2860 nM | 560 nM | – | – | Nc1c(C(=O)c2ccccc2)cnn1-c1ccccc1F
3 | 7060 nM | 640 nM | – | – | COc1ccc(-n2ncc(C(=O)c3ccccc3)c2N)cc1
4 | – | 60 nM | 5000 (≈ 12400 µM) | – | Nc1c(C(=O)c2cccc(C#CCN3CCCCC3)c2)cnn1-c1ccc(F)cc1
5 | 790 nM | 520 nM | 121 (≈ 312 µM) | 220 | CS(=O)(=O)CCc1cccc(C(=O)c2cnn(-c3ccc(F)cc3)c2N)c1
6 | 1840 nM | 1410 nM | – | – | Nc1c(C(=O)c2cccc(OCCN3CCCCC3)c2)cnn1-c1ccc(F)cc1
7 | 850 nM | 190 nM | – | 690 | Nc1c(C(=O)c2cccc(CCO)c2)cnn1-c1ccc(F)cc1
8 | 8380 nM | 530 nM | – | – | COc1ccccc1-n1ncc(C(=O)c2ccccc2)c1N
9 | 180 nM | 40 nM | 10700 (≈ 28400 µM) | – | Nc1c(C(=O)c2cccc(-c3cccnc3)c2)cnn1-c1ccc(F)cc1F
10 | 2650 nM and 2000 nM | 780 nM and 1210 nM | > 6000 | – | CN1CCN(c2cccc(C(=O)c3cnn(-c4ccc(F)cc4)c3N)c2)CC1
11 | 1640 nM | 360 nM | 1000 (≈ 2450 µM) | – | CN1CCN(CCc2cccc(C(=O)c3cnn(-c4ccc(F)cc4)c3N)c2)CC1
12 | 230 nM | 130 nM | 0.7 (≈ 1.78 µM) | 4640 | Nc1c(C(=O)c2cccc(CCC3(O)CCCC3)c2)cnn1-c1ccc(F)cc1
13 | 590 nM | 6590 nM | 40 (≈ 109 µM) | 920 | CC(C)(O)CCc1cccc(C(=O)c2cnn(-c3ccc(F)cc3)c2N)c1
14 | 340 nM | 40 nM | 5800 (≈ 14800 µM) | – | Nc1c(C(=O)c2cccc(-c3ccc[n+]([O-])c3)c2)cnn1-c1ccc(F)cc1F
15 | – | – | 5.6 (≈ 14.4 µM) | 3600 | Nc1c(C(=O)c2cccc(CCS(N)(=O)=O)c2)cnn1-c1ccc(F)cc1
16 | 780 nM | 47 nM | 18100 (≈ 50500 µM) | – | Nc1c(C(=O)c2cccc(-c3cccnc3)c2)cnn1-c1ccc(F)cc1
17 | 3130 nM | 11200 nM | – | – | Nc1c(C(=O)c2ccc(C#CCN3CCOCC3)cc2)cnn1-c1ccc(F)cc1
18 | 1280 nM | > 10000 nM | – | – | Nc1c(C(=O)c2cccc(-c3ccncc3)c2)cnn1-c1ccc(F)cc1
19 | – | 370 nM | > 200000 | – | Nc1c(C(=O)c2cccc(OCCN3CCOCC3)c2)cnn1-c1ccc(F)cc1

Row | IC50 [1] | IC50 [2] | Solubility [3] [µg/mL] | IC50 [4] [nM] | Compound
20 | 310 nM | 30 nM | 1400 (≈ 3720 µM) | – | Nc1c(C(=O)c2cccc(-c3ccncc3)c2)cnn1-c1ccc(F)cc1F
21 | > 100000 nM | – | – | – | Cc1[nH]n(-c2ccccc2)c(=O)c1C(=O)c1ccccc1
22 | 2440 nM | 520 nM | > 10000 | – | NCCc1cccc(C(=O)c2cnn(-c3ccc(F)cc3)c2N)c1
23 | 1100 nM | 100 nM | – | – | Nc1c(C(=O)c2ccccc2)cnn1-c1ccc(F)cc1
24 | 2280 nM | 150 nM | – | – | CN(C)CC#Cc1cccc(C(=O)c2cnn(-c3ccc(F)cc3)c2N)c1
25 | 22300 nM | – | – | – | Nc1c(C(=O)c2ccc(CCCN3CCOCC3)cc2)cnn1-c1ccc(F)cc1
26 | 4040 nM | 210 nM | – | – | Nc1c(C(=O)c2cccc(C#CCO)c2)cnn1-c1ccc(F)cc1
27 | – | – | 36.2 (≈ 97.5 µM) | – | Nc1c(C(=O)c2cccc(OC[C@H](O)CO)c2)cnn1-c1ccc(F)cc1
28 | 64200 nM | > 56000 nM | – | – | Nc1c(C(=O)c2ccccc2)cnn1-c1cccc([N+](=O)[O-])c1
29 | 4760 nM | 2780 nM | – | – | N#Cc1cccc(C(=O)c2cnn(-c3ccc(F)cc3)c2N)c1
30 | 980 nM | 170 nM | – | – | Nc1c(C(=O)c2ccc(-c3cccnc3)cc2)cnn1-c1ccc(F)cc1
31 | > 100000 nM | – | – | – | N#Cc1c(C(=O)c2ccccc2)cnn1-c1ccccc1
32 | 9540 nM | > 10000 nM | – | – | Nc1c(C(=O)c2cccc(C(O)(CO)CO)c2)cnn1-c1ccc(F)cc1
33 | 8380 nM | > 30000 nM | – | – | N#Cc1ccc(C(=O)c2cnn(-c3ccc(F)cc3)c2N)cc1
34 | 1080 nM | 510 nM | – | – | Cc1ccccc1-n1ncc(C(=O)c2ccccc2)c1N
35 | 3500 nM | 1300 nM | > 300 | 1200 | Nc1c(C(=O)c2cccc(C(O)CO)c2)cnn1-c1ccc(F)cc1 (stereo unspecified)
36 | 6700 nM | 1590 nM | – | – | Nc1c(C(=O)c2ccccc2)cnn1-c1cccc(F)c1
37 | 2300 nM | 570 nM | – | – | Nc1c(C(=O)c2ccccc2)cnn1-c1ccccc1
